The results in this text go back to BindingDB's records for PubMed 34491744 (National Center For Advancing Translational Sciences, 2021).

As a reminder, the IC50 is the concentration at which inhibition is half-maximal.

Molecules are shown by their SMILES.

The target of the experiment is Galactokinase (Homo sapiens, UniProt P51570). As to the kind of experiment: Inhibition of recombinant human GALK1 using galactose as substrate incubated for 1 hrs in the presence of ATP by Kinase-Glo reagent based luminescence assay. In general terms: Kinase-Glo measures the ATP left after a reaction by luminescence.
Chain of Galactokinase (P51570 whole entry): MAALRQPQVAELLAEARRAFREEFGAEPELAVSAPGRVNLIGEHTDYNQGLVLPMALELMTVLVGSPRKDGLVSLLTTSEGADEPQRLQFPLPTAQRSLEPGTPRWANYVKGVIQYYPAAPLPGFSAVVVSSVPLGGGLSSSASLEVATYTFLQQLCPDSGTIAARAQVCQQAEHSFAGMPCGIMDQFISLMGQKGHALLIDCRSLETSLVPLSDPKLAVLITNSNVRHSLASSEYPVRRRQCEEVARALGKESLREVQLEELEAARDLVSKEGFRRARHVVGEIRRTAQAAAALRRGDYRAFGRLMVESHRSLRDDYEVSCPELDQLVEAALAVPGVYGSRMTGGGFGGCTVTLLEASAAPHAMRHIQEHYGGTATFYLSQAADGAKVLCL
In the case of `CC1=C(C(=O)NCc2cncn2C)C(c2ccccc2Cl)N=C(Nc2nc3ccccc3o2)N1` (stereo not drawn), the IC50 turned out to be 1.58 µM.

Regarding `CC1=C(C(=O)NCc2ccccc2O)C(c2ccccc2Cl)N=C(Nc2nc3ccccc3o2)N1` (stereo not drawn), the IC50 was 6.31 µM.

With `CC1=C(C(=O)Nc2cc(C(=O)O)ccn2)C(c2ccccc2Cl)N=C(Nc2nc3cc(F)ccc3o2)N1` (stereo not drawn), the IC50 was found to be 3.16 µM.
